# In the NIST ThermoML archive (doi:10.1021/acs.jced.8b00387):
# “And” between values parts separate entries of the source, which are not always exact repeats. Identical values can stand only once. ± gives the expanded uncertainty stated by the source.
# Settings: 253.15 K; 102 kPa; Liquid; Concentric cylinders viscometry
row,Compound,viscosity
1,"CC(CC(C)(C)C)CC(C)(C)C [2,2,4,6,6-pentamethylheptane]",3.08 ± 0.06 mPa·s
2,"CC(CC(C)(C)C)CC(C)(C)CC(C)(C)C (stereo not given) [2,2,4,4,6,8,8-heptamethylnonane]",14.09 ± 0.19 mPa·s
3,CCCCCCc1ccccc1 [hexylbenzene],4.56 ± 0.07 mPa·s and 4.63 ± 0.04 mPa·s
4,CCCCc1ccccc1 [butylbenzene],2.21 ± 0.06 mPa·s

# Same assay, conditions: 253.15 K; 102 kPa; Liquid; Vibrating tube method
row,Compound,mass density
1,"CC(CC(C)(C)C)CC(C)(C)C [2,2,4,6,6-pentamethylheptane]",775.8 ± 2 kg/m3
2,"CC(CC(C)(C)C)CC(C)(C)CC(C)(C)C (stereo not given) [2,2,4,4,6,8,8-heptamethylnonane]",811.4 ± 2 kg/m3
3,CCCCCCc1ccccc1 [hexylbenzene],888.9 ± 0.4 kg/m3 and 889.1 ± 2 kg/m3
4,CCCCc1ccccc1 [butylbenzene],892.6 ± 2 kg/m3

# Same assay, conditions: 288.15 K; 102 kPa; Liquid; Frequency=3 MHz; Single path-length method
row,Compound,speed of sound
1,"CC(CC(C)(C)C)CC(C)(C)C [2,2,4,6,6-pentamethylheptane]",1223.7 ± 1.3 m/s
2,"CC(CC(C)(C)C)CC(C)(C)CC(C)(C)C (stereo not given) [2,2,4,4,6,8,8-heptamethylnonane]",1305.1 ± 1.2 m/s
3,CCCCCCc1ccccc1 [hexylbenzene],1395.8 ± 1.6 m/s and 1395.6 ± 1.6 m/s
4,CCCCc1ccccc1 [butylbenzene],1373.7 ± 1.1 m/s

# Same assay, conditions: 288.15 K; 102 kPa; Liquid; Vibrating tube method
row,Compound,mass density
1,"CC(CC(C)(C)C)CC(C)(C)C [2,2,4,6,6-pentamethylheptane]",748.8 ± 0.7 kg/m3
2,"CC(CC(C)(C)C)CC(C)(C)CC(C)(C)C (stereo not given) [2,2,4,4,6,8,8-heptamethylnonane]",787.76 ± 0.71 kg/m3
3,CCCCCCc1ccccc1 [hexylbenzene],862.3 ± 0.4 kg/m3 and 862.4 ± 0.8 kg/m3
4,CCCCc1ccccc1 [butylbenzene],864.47 ± 0.71 kg/m3

# Same assay, conditions: 293.15 K; 102 kPa; Liquid; Concentric cylinders viscometry
row,Compound,viscosity
1,"CC(CC(C)(C)C)CC(C)(C)C [2,2,4,6,6-pentamethylheptane]",1.31 ± 0.02 mPa·s
2,"CC(CC(C)(C)C)CC(C)(C)CC(C)(C)C (stereo not given) [2,2,4,4,6,8,8-heptamethylnonane]",3.75 ± 0.03 mPa·s
3,CCCCCCc1ccccc1 [hexylbenzene],1.64 ± 0.02 mPa·s and 1.66 ± 0.02 mPa·s
4,CCCCc1ccccc1 [butylbenzene],1 ± 0.02 mPa·s

# Same assay, conditions: 293.15 K; 102 kPa; Liquid; Frequency=3 MHz; Single path-length method
row,Compound,speed of sound
1,"CC(CC(C)(C)C)CC(C)(C)C [2,2,4,6,6-pentamethylheptane]",1203.8 ± 1.3 m/s
2,"CC(CC(C)(C)C)CC(C)(C)CC(C)(C)C (stereo not given) [2,2,4,4,6,8,8-heptamethylnonane]",1285.9 ± 1.2 m/s
3,CCCCCCc1ccccc1 [hexylbenzene],1376 ± 1.6 m/s and 1376.5 ± 1.6 m/s
4,CCCCc1ccccc1 [butylbenzene],1353.2 ± 1.1 m/s

# Same assay, conditions: 293.15 K; 102 kPa; Liquid; Vibrating tube method
row,Compound,mass density
1,"CC(CC(C)(C)C)CC(C)(C)C [2,2,4,6,6-pentamethylheptane]",745.2 ± 0.7 kg/m3
2,"CC(CC(C)(C)C)CC(C)(C)CC(C)(C)C (stereo not given) [2,2,4,4,6,8,8-heptamethylnonane]",784.41 ± 0.71 kg/m3
3,CCCCCCc1ccccc1 [hexylbenzene],858.5 ± 0.4 kg/m3 and 858.6 ± 0.8 kg/m3
4,CCCCc1ccccc1 [butylbenzene],860.17 ± 0.71 kg/m3

# Same assay, conditions: 294 K, Pendant drop shape
row,Compound,surface tension liquid-gas
1,"CC(CC(C)(C)C)CC(C)(C)C [2,2,4,6,6-pentamethylheptane]",22.1 ± 0.4 mN/m

# Same assay, conditions: 294.7 K, Pendant drop shape
row,Compound,surface tension liquid-gas
1,"CC(CC(C)(C)C)CC(C)(C)CC(C)(C)C (stereo not given) [2,2,4,4,6,8,8-heptamethylnonane]",24.2 ± 0.3 mN/m

# Same assay, conditions: 295 K, Pendant drop shape
row,Compound,surface tension liquid-gas
1,CCCCCCc1ccccc1 [hexylbenzene],29.3 ± 0.4 mN/m
2,CCCCc1ccccc1 [butylbenzene],29 ± 0.3 mN/m

# Same assay, conditions: 303.15 K; 102 kPa; Liquid; Concentric cylinders viscometry
row,Compound,viscosity
1,"CC(CC(C)(C)C)CC(C)(C)C [2,2,4,6,6-pentamethylheptane]",1.13 ± 0.02 mPa·s
2,"CC(CC(C)(C)C)CC(C)(C)CC(C)(C)C (stereo not given) [2,2,4,4,6,8,8-heptamethylnonane]",2.97 ± 0.03 mPa·s
3,CCCCCCc1ccccc1 [hexylbenzene],1.39 ± 0.02 mPa·s and 1.41 ± 0.01 mPa·s
4,CCCCc1ccccc1 [butylbenzene],0.88 ± 0.021 mPa·s

# Same assay, conditions: 303.15 K; 102 kPa; Liquid; Frequency=3 MHz; Single path-length method
row,Compound,speed of sound
1,"CC(CC(C)(C)C)CC(C)(C)C [2,2,4,6,6-pentamethylheptane]",1164.7 ± 1.3 m/s
2,"CC(CC(C)(C)C)CC(C)(C)CC(C)(C)C (stereo not given) [2,2,4,4,6,8,8-heptamethylnonane]",1248.3 ± 1.2 m/s
3,CCCCCCc1ccccc1 [hexylbenzene],1338.1 ± 1.6 m/s and 1338.7 ± 1.6 m/s
4,CCCCc1ccccc1 [butylbenzene],1314.3 ± 1.1 m/s

# Same assay, conditions: 303.15 K; 102 kPa; Liquid; Vibrating tube method
row,Compound,mass density
1,"CC(CC(C)(C)C)CC(C)(C)C [2,2,4,6,6-pentamethylheptane]",737.9 ± 0.7 kg/m3
2,"CC(CC(C)(C)C)CC(C)(C)CC(C)(C)C (stereo not given) [2,2,4,4,6,8,8-heptamethylnonane]",777.73 ± 0.72 kg/m3
3,CCCCCCc1ccccc1 [hexylbenzene],850.9 ± 0.4 kg/m3 and 851 ± 0.8 kg/m3
4,CCCCc1ccccc1 [butylbenzene],852.13 ± 0.71 kg/m3

# Same assay, conditions: 313.15 K; 102 kPa; Liquid; Concentric cylinders viscometry
row,Compound,viscosity
1,"CC(CC(C)(C)C)CC(C)(C)C [2,2,4,6,6-pentamethylheptane]",0.955 ± 0.021 mPa·s
2,"CC(CC(C)(C)C)CC(C)(C)CC(C)(C)C (stereo not given) [2,2,4,4,6,8,8-heptamethylnonane]",2.4 ± 0.02 mPa·s
3,CCCCCCc1ccccc1 [hexylbenzene],1.17 ± 0.02 mPa·s and 1.19 ± 0.01 mPa·s
4,CCCCc1ccccc1 [butylbenzene],0.775 ± 0.021 mPa·s

# Same assay, conditions: 313.15 K; 102 kPa; Liquid; Frequency=3 MHz; Single path-length method
row,Compound,speed of sound
1,"CC(CC(C)(C)C)CC(C)(C)C [2,2,4,6,6-pentamethylheptane]",1126.5 ± 1.3 m/s
2,"CC(CC(C)(C)C)CC(C)(C)CC(C)(C)C (stereo not given) [2,2,4,4,6,8,8-heptamethylnonane]",1211.7 ± 1.2 m/s
3,CCCCCCc1ccccc1 [hexylbenzene],1301.1 ± 1.6 m/s and 1301.6 ± 1.6 m/s
4,CCCCc1ccccc1 [butylbenzene],1276.1 ± 1.1 m/s

# Same assay, conditions: 313.15 K; 102 kPa; Liquid; Vibrating tube method
row,Compound,mass density
1,"CC(CC(C)(C)C)CC(C)(C)C [2,2,4,6,6-pentamethylheptane]",730.6 ± 0.7 kg/m3
2,"CC(CC(C)(C)C)CC(C)(C)CC(C)(C)C (stereo not given) [2,2,4,4,6,8,8-heptamethylnonane]",770.99 ± 0.72 kg/m3
3,CCCCCCc1ccccc1 [hexylbenzene],843.3 ± 0.4 kg/m3 and 843.4 ± 0.8 kg/m3
4,CCCCc1ccccc1 [butylbenzene],844.07 ± 0.71 kg/m3

# Same assay, conditions: 323.15 K; 102 kPa; Liquid; Concentric cylinders viscometry
row,Compound,viscosity
1,"CC(CC(C)(C)C)CC(C)(C)C [2,2,4,6,6-pentamethylheptane]",0.849 ± 0.021 mPa·s
2,"CC(CC(C)(C)C)CC(C)(C)CC(C)(C)C (stereo not given) [2,2,4,4,6,8,8-heptamethylnonane]",1.97 ± 0.02 mPa·s
3,CCCCCCc1ccccc1 [hexylbenzene],1.03 ± 0.02 mPa·s and 1.04 ± 0.01 mPa·s
4,CCCCc1ccccc1 [butylbenzene],0.687 ± 0.021 mPa·s

# Same assay, conditions: 323.15 K; 102 kPa; Liquid; Frequency=3 MHz; Single path-length method
row,Compound,speed of sound
1,"CC(CC(C)(C)C)CC(C)(C)C [2,2,4,6,6-pentamethylheptane]",1089.1 ± 1.3 m/s
2,"CC(CC(C)(C)C)CC(C)(C)CC(C)(C)C (stereo not given) [2,2,4,4,6,8,8-heptamethylnonane]",1175.9 ± 1.2 m/s
3,CCCCCCc1ccccc1 [hexylbenzene],1264.7 ± 1.6 m/s and 1265.3 ± 1.6 m/s
4,CCCCc1ccccc1 [butylbenzene],1238.4 ± 1.1 m/s

# Same assay, conditions: 323.15 K; 102 kPa; Liquid; Vibrating tube method
row,Compound,mass density
1,"CC(CC(C)(C)C)CC(C)(C)C [2,2,4,6,6-pentamethylheptane]",723.2 ± 0.7 kg/m3
2,"CC(CC(C)(C)C)CC(C)(C)CC(C)(C)C (stereo not given) [2,2,4,4,6,8,8-heptamethylnonane]",764.27 ± 0.72 kg/m3
3,CCCCCCc1ccccc1 [hexylbenzene],845.7 ± 0.4 kg/m3 and 835.8 ± 0.8 kg/m3
4,CCCCc1ccccc1 [butylbenzene],835.98 ± 0.71 kg/m3

# Same assay, conditions: 333.15 K; 102 kPa; Liquid; Concentric cylinders viscometry
row,Compound,viscosity
1,"CC(CC(C)(C)C)CC(C)(C)C [2,2,4,6,6-pentamethylheptane]",0.744 ± 0.021 mPa·s
2,"CC(CC(C)(C)C)CC(C)(C)CC(C)(C)C (stereo not given) [2,2,4,4,6,8,8-heptamethylnonane]",1.65 ± 0.02 mPa·s
3,CCCCCCc1ccccc1 [hexylbenzene],0.9 ± 0.02 mPa·s
4,CCCCc1ccccc1 [butylbenzene],0.615 ± 0.021 mPa·s

# Same assay, conditions: 333.15 K; 102 kPa; Liquid; Frequency=3 MHz; Single path-length method
row,Compound,speed of sound
1,"CC(CC(C)(C)C)CC(C)(C)C [2,2,4,6,6-pentamethylheptane]",1052.7 ± 1.3 m/s
2,"CC(CC(C)(C)C)CC(C)(C)CC(C)(C)C (stereo not given) [2,2,4,4,6,8,8-heptamethylnonane]",1141.3 ± 1.2 m/s
3,CCCCCCc1ccccc1 [hexylbenzene],1229.4 ± 1.6 m/s and 1229.8 ± 1.6 m/s
4,CCCCc1ccccc1 [butylbenzene],1201.5 ± 1.1 m/s

# Same assay, conditions: 333.15 K; 102 kPa; Liquid; Vibrating tube method
row,Compound,mass density
1,"CC(CC(C)(C)C)CC(C)(C)C [2,2,4,6,6-pentamethylheptane]",715.8 ± 0.7 kg/m3
2,"CC(CC(C)(C)C)CC(C)(C)CC(C)(C)C (stereo not given) [2,2,4,4,6,8,8-heptamethylnonane]",757.53 ± 0.72 kg/m3
3,CCCCCCc1ccccc1 [hexylbenzene],828.1 ± 0.4 kg/m3 and 828.2 ± 0.8 kg/m3
4,CCCCc1ccccc1 [butylbenzene],827.86 ± 0.71 kg/m3
